In the supplement of paper PMC10307832:

Tests used:
Test in all cases: relative viability (nuclei count vs DMSO), 5 days (fraction); higher = more cells survive
AT9283 + Dasatinib = compound: O=C(Nc1c[nH]nc1-c1nc2ccc(CN3CCOCC3)cc2[nH]1)NC1CC1 [AT9283] + Cc1nc(Nc2ncc(C(=O)Nc3c(C)cccc3Cl)s2)cc(N2CCN(CCO)CC2)n1 [Dasatinib] (partner 0.075 µM)
Summary of the method: (§1)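 One day after seeding in 1536-well plates, lung cancer cell lines were dosed by pin tool. Dosing was either single-drug or a fixed anchor-drug dose plus five library-drug doses (not always all listed) in √10 steps. After 5 days, nuclei were stained in one fix-and-stain step and counted on 4× images, and relative viability is the nuclei count of treated wells over that of vehicle wells, given as the median of duplicate plates.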

Erlotinib + Decitabine = compound: C#Cc1cccc(Nc2ncnc3cc(OCCOC)c(OCCOC)cc23)c1 [Erlotinib] + Nc1ncn([C@H]2C[C@H](O)[C@@H](CO)O2)c(=O)n1 [Decitabine] (partner 2 µM)
Summary of the method: as §1

AT9283 + AZD7762 = compound: O=C(Nc1c[nH]nc1-c1nc2ccc(CN3CCOCC3)cc2[nH]1)NC1CC1 [AT9283] + NC(=O)Nc1cc(-c2cccc(F)c2)sc1C(=O)N[C@H]1CCCNC1 [AZD7762] (partner 0.2 µM)
Summary of the method: as §1

AT9283 + OSI-027 = compound: O=C(Nc1c[nH]nc1-c1nc2ccc(CN3CCOCC3)cc2[nH]1)NC1CC1 [AT9283] + COc1cccc2cc(-c3nc([C@H]4CC[C@H](C(=O)O)CC4)n4ncnc(N)c34)[nH]c12 [OSI-027] (partner 0.5 µM)
Summary of the method: as §1

AT9283 + Navitoclax = compound: O=C(Nc1c[nH]nc1-c1nc2ccc(CN3CCOCC3)cc2[nH]1)NC1CC1 [AT9283] + CC1(C)CCC(c2ccc(Cl)cc2)=C(CN2CCN(c3ccc(C(=O)NS(=O)(=O)c4ccc(N[C@H](CCN5CCOCC5)CSc5ccccc5)c(S(=O)(=O)C(F)(F)F)c4)cc3)CC2)C1 [Navitoclax] (partner 0.5 µM)
Summary of the method: as §1

| Cell Line | relative viability (AT9283 + Dasatinib; first compound 0.003 µM) | relative viability (AT9283 + Dasatinib; first compound 0.03 µM) | relative viability (AT9283 + Dasatinib; first compound 0.09487 µM) | relative viability (AT9283 + Dasatinib; first compound 0.3 µM) | relative viability (Erlotinib + Decitabine; first compound 0.02 µM) | relative viability (Erlotinib + Decitabine; first compound 0.2 µM) | relative viability (Erlotinib + Decitabine; first compound 0.6325 µM) | relative viability (Erlotinib + Decitabine; first compound 2 µM) | relative viability (AT9283 + AZD7762; first compound 0.003 µM) | relative viability (AT9283 + AZD7762; first compound 0.03 µM) | relative viability (AT9283 + AZD7762; first compound 0.09487 µM) | relative viability (AT9283 + AZD7762; first compound 0.3 µM) | relative viability (AT9283 + OSI-027; first compound 0.003 µM) | relative viability (AT9283 + OSI-027; first compound 0.03 µM) | relative viability (AT9283 + OSI-027; first compound 0.09487 µM) | relative viability (AT9283 + OSI-027; first compound 0.3 µM) | relative viability (AT9283 + Navitoclax; first compound 0.003 µM) | relative viability (AT9283 + Navitoclax; first compound 0.03 µM) | relative viability (AT9283 + Navitoclax; first compound 0.09487 µM) | relative viability (AT9283 + Navitoclax; first compound 0.3 µM) |
| --- | --- | --- | --- | --- | --- | --- | --- | --- | --- | --- | --- | --- | --- | --- | --- | --- | --- | --- | --- | --- |
| NCI-H1975 | 0.401 | 0.461 | 0.389 | 0.237 | 0.431 | 0.402 | 0.409 | 0.332 | 0.7 | 0.711 | 0.622 | 0.458 | 0.726 | 0.706 | 0.671 | 0.344 | 1.11 | 1.18 | 0.971 | 0.282 |
| NCI-H1993 | 0.618 | 0.557 | 0.462 | 0.448 | 0.602 | 0.483 | 0.553 | 0.531 | 0.822 | 0.745 | 0.469 | 0.326 | 0.545 | 0.528 | 0.487 | 0.486 | 0.872 | 0.905 | 0.586 | 0.466 |
| NCI-H2085 | 0.231 | 0.238 | 0.224 | 0.2 | 0.573 | 0.585 | 0.531 | 0.496 | 0.968 | 0.969 | 0.749 | 0.353 | 0.896 | 0.731 | 0.553 | 0.321 | 1.05 | 0.815 | 0.671 | 0.244 |
| NCI-H2087 | 0.765 | 0.309 | 0.122 | 0.0986 | 0.286 | 0.238 | 0.282 | 0.208 | 1.35 | 0.686 | 0.348 | 0.244 | 0.637 | 0.392 | 0.14 | 0.134 | 0.985 | 0.713 | 0.273 | 0.186 |
| NCI-H2126 | 0.587 | 0.602 | 0.439 | 0.271 | 0.569 | 0.537 | 0.437 | 0.493 | 0.979 | 1.05 | 0.969 | 0.339 | 0.635 | 0.808 | 0.75 | 0.389 | 0.871 | 0.892 | 0.634 | 0.319 |
| NCI-H2170 | 0.446 | 0.427 | 0.16 | 0.133 | 0.542 | 0.492 | 0.505 | 0.419 | 0.794 | 0.485 | 0.162 | 0.153 | 0.663 | 0.607 | 0.298 | 0.172 | 0.536 | 0.334 | 0.201 | 0.179 |
